This assay addresses T1, mTOR (Homo sapiens, UniProt P42345).
T1 construct: FLAG; made in house
Description: In Vitro mTOR Kinase Assay (Echo), Test (a)(ii). It counts as biochemical. In a few lines:
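FLAG-tagged human mTOR truncation (residues 1362-2549) expressed in HEK293 cells and FLAG-purified. Compounds dispensed acoustically, reaction 2 h at room temperature, stopped with EDTA. Phosphorylation of biotinylated peptide detected by AlphaScreen with anti-p70 S6K (T389) antibody overnight; IC50 reported.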

[1] abbreviates: table of enzyme assay Test (a)(ii), read-out: Test (a)(ii) IC50.

pIC50: −log10 of the molar value. Where two headings read alike, the source gives them in different places.

For orientation: pIC50 means the negative decadic logarithm of the IC50, by convention in mol/L.

T1 sequence (P42345 1362-2549): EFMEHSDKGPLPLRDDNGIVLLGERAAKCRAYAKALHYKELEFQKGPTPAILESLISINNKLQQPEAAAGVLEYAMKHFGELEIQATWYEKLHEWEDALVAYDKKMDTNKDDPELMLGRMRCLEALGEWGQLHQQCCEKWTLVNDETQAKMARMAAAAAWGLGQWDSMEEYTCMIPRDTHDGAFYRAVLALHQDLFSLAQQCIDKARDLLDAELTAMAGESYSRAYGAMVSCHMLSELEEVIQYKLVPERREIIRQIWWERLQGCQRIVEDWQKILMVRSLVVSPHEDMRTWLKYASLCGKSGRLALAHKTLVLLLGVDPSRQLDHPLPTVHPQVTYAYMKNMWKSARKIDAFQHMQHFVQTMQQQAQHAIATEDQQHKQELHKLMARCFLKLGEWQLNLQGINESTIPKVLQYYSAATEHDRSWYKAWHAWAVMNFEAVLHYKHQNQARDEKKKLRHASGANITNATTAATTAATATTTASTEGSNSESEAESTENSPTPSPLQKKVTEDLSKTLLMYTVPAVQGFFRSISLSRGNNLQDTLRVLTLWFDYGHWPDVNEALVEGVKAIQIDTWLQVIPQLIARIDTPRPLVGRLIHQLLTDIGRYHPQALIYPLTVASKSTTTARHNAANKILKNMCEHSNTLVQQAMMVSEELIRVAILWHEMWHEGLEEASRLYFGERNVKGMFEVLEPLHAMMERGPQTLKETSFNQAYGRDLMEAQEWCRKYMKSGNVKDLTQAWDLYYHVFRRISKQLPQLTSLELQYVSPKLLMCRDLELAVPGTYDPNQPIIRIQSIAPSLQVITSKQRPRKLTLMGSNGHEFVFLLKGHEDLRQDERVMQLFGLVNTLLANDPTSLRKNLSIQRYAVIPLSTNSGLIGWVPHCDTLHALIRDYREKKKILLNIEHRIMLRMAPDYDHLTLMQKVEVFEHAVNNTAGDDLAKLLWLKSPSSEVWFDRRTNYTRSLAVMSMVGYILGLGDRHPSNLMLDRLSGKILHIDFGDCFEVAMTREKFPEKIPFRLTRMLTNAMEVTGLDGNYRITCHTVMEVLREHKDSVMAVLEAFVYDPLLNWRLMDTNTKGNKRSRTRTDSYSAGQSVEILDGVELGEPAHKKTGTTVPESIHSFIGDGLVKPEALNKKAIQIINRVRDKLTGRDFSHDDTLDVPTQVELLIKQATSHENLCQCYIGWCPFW

On to `Cc1cc(NC(=O)Nc2ccc(-c3nc(N4CCOC[C@@H]4C)cc(C4(S(=O)(=O)c5ccccc5)CC4)n3)cc2)no1` [Example 36dw, 3-[4-[4-[1-(benzenesulfonyl)cyclopropyl]-6-[(3S)-3-methylmorpholin-4-yl]pyrimidin-2-yl]phenyl]-1-(5-methyl-1,2-oxazol-3-yl)urea], for which, under setting [1], the negative-log IC50 (pIC50) was 8.20.
As to `C[C@H]1COCCN1c1cc(C2(S(=O)(=O)c3ccccc3)CC2)nc(-c2ccc(NC(=O)NCC(F)F)cc2)n1` [Example 36dx, 1-[4-[4-[1-(benzenesulfonyl)cyclopropyl]-6-[(3S)-3-methylmorpholin-4-yl]pyrimidin-2-yl]phenyl]-3-(2,2-difluoroethyl)urea], the pIC50 under setting [1] was 8.58.
Same read-out and setting: in the case of `C[C@H]1COCCN1c1cc(C2(S(=O)(=O)c3ccccc3)CC2)nc(-c2ccc(NC(=O)Nc3ncco3)cc2)n1` [Example 36dy, 1-[4-[4-[1-(benzenesulfonyl)cyclopropyl]-6-[(3S)-3-methylmorpholin-4-yl]pyrimidin-2-yl]phenyl]-3-(1,3-oxazol-2-yl)urea] it was 8.20; in that of `C[C@H]1COCCN1c1cc(C2(S(=O)(=O)c3ccccc3)CC2)nc(-c2ccc(NC(=O)Nc3ccon3)cc2)n1` [Example 36dz, 1-[4-[4-[1-(benzenesulfonyl)cyclopropyl]-6-[(3S)-3-methylmorpholin-4-yl]pyrimidin-2-yl]phenyl]-3-(1,2-oxazol-3-yl)urea], 8.56.
Same read-out and setting: in the case of `C[C@H]1COCCN1c1cc(C2(S(=O)(=O)C3CC3)CCC2)nc(-c2ccc(NC(=O)NC3CC3)cc2)n1` [Example 36e, 3-cyclopropyl-1-[4-[4-(1-cyclopropylsulfonylcyclobutyl)-6-[(3S)-3-methylmorpholin-4-yl]pyrimidin-2-yl]phenyl]urea] it was 8.18; in that of `C[C@H]1COCCN1c1cc(C2(S(=O)(=O)c3ccccc3)CC2)nc(-c2ccc(NC(=O)NCC(F)(F)F)cc2)n1` [Example 36ea, 1-[4-[4-[1-(benzenesulfonyl)cyclopropyl]-6-[(3S)-3-methylmorpholin-4-yl]pyrimidin-2-yl]phenyl]-3-(2,2,2-trifluroethyl)urea], 8.05; in that of `C[C@H]1COCCN1c1cc(C2(S(=O)(=O)c3ccccc3)CC2)nc(-c2ccc(NC(=O)Nc3cn(C)cn3)cc2)n1` [Example 36eb, 1-[4-[4-[1-(benzenesulfonyl)cyclopropyl]-6-[(3S)-3-methylmorpholin-4-yl]pyrimidin-2-yl]phenyl]-3-(1-methylimidazol-4-yl)urea], 8.51.
The same measure, in the same setting: to `C[C@@H](CO)NC(=O)Nc1ccc(-c2nc(N3CCOC[C@@H]3C)cc(C3(S(=O)(=O)c4ccccc4)CC3)n2)cc1` [Example 36ec, 1-[4-[4-[1-(benzenesulfonyl)cyclopropyl]-6-[(3S)-3-methylmorpholin-4-yl]pyrimidin-2-yl]phenyl]-3-[(2S)-1-hydroxypropan-2-yl]urea] belongs 8.49; to `C[C@H](CO)NC(=O)Nc1ccc(-c2nc(N3CCOC[C@@H]3C)cc(C3(S(=O)(=O)c4ccccc4)CC3)n2)cc1` [Example 36ed, 1-[4-[4-[1-(benzenesulfonyl)cyclopropyl]-6-[(3S)-3-methylmorpholin-4-yl]pyrimidin-2-yl]phenyl]-3-[(2R)-1-hydroxypropan-2-yl]urea], 8.15.
`C[C@H]1COCCN1c1cc(C2(S(=O)(=O)c3ccccc3)CC2)nc(-c2ccc(NC(=O)NCCCl)cc2)n1` [Example 36ee, 1-[4-[4-[1-(benzenesulfonyl)cyclopropyl]-6-[(3S)-3-methylmorpholin-4-yl]pyrimidin-2-yl]phenyl]-3-(2-chloroethyl)urea] had a negative-log IC50 (pIC50) of 8.02.
In the case of `CCS(=O)(=O)C1(c2cc(N3CCOC[C@@H]3C)nc(-c3ccc(NC(=O)NCCF)cc3)n2)CC1` [Example 36ef, 1-[4-[4-(1-ethylsulfonylcyclopropyl)-6-[(3S)-3-methylmorpholin-4-yl]pyrimidin-2-yl]phenyl]-3-(2-fluorethyl)urea], under setting [1], the negative-log IC50 (pIC50) is 8.08.

The record behind these values is patent US20090018134A1, “Compounds - 945” (AstraZeneca AB, priority 2007, published 2009).
